The text below walks through data of patent US20220265629A1, “TREATMENT OF SYSTOLIC DYSFUNCTION AND HEART FAILURE WITH REDUCED EJECTION FRACTION WITH THE COMPOUND (R)-4-(1-((3-(DIFLUOROMETHYL)-1-METHYL-1H-PYRAZOL-4-YL)SULFONYL)-1-FLUOROETHYL)-N-(ISOXAZOL-3-YL)PIPERIDINE-1-CARBOXAMIDE” (MyoKardia, Inc., priority 2019, published 2022).

The structures appear in SMILES notation. Where two headings read alike, the source gives them in different places.

This data set can be described thus: Single ascending oral dose study in healthy volunteers: urinary excretion and renal clearance. It counts as in vivo, human. The conditions noted are these: for CL renal: human, plasma and urine. How it is done: The concentrations of Compound I in human plasma and urine were quantitated by high performance liquid chromatography with tandem mass spectrometric detection (LC MS/MS) (Biological sample analysis study report Alturas AD17-726). Plasma samples were extracted by protein precipitation with acetonitrile containing internal standard MYK-5654. The calibration curves were linear over concentration range of 0.500 to 1000 ng/mL with a lower limit of quantification (LLOQ) of 0.500 ng/mL.
The PK Population included all subjects who received Compound I. Blood samples were collected for PK assessments. The actual timing of the samples may have been modified and/or up to an additional 2 samples may have been requested by the SRC after review of the data from previous cohorts. It was important that PK sampling occurred as closely as possible to the scheduled time (±10%). Both blood and urine samples were used for PK assessments.

`Cn1cc(S(=O)(=O)[C@@](C)(F)C2CCN(C(=O)Nc3ccon3)CC2)c(C(F)F)n1` [Compound I, (R)-4-(1-((3-(difluoromethyl)-1-methyl-1H-pyrazol-4-yl)sulfonyl)-1-fluoroethyl)-N-(isoxazol-3-yl)piperidine-1-carboxamide]: the “dose recovered in 0-48 hours urine” value is listed as “approximately 6.0%” (350 mg) and roughly 8.6% (525 mg). In addition, the CL renal (oral, all doses, read-out: renal clearance, mean (converted)) was 9.5 mL/min; the CL renal (po, 350 mg, 350 mg dose group, read-out: renal clearance, mean (SD) (converted)) was 5.55 mL/min; the CL renal (po, 525 mg, 525 mg dose group, read-out: renal clearance, mean (SD) (converted)) is 13.3 mL/min; the CL renal (po, all doses, read-out: renal clearance, individuals range) lay within 2.95 to 23.3 mL/min; the CL renal (po, all doses, read-out: renal clearance, mean (converted)) is roughly 9.5 mL/min.
